Laboratory results: patent US9695155B2, “Herbicidal substituted pyrimidinyloxy benzene compounds” (E. I. DU PONT DE NEMOURS AND COMPANY, priority 2013, dated 2017)

Assays:
velvetleaf [1] = experiment: Test A preemergence; format: in vivo, Abutilon theophrasti
Procedure, shortened: (§1)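 Injury scores run from 0, no effect, to 100, complete control, judged by eye against untreated plants roughly 10 days after treatment. Chemicals carried a surfactant in a non-phytotoxic solvent and went onto loam–sand soil preemergence or onto one- to two-leaf seedlings postemergence.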

barnyardgrass = experiment: Test C postemergence; format: in vivo, Echinochloa crus-galli; conditions: Echinochloa crus-galli, post-emergence
Procedure, shortened: (§2)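 Seeds were sown in loam–sand blend and sprayed preemergence, while plants at 1- to 4-leaf stage (2–18 cm) in peat-based medium received postemergence sprays; test chemicals were formulated in a non-phytotoxic solvent with surfactant. After 13–15 days in a greenhouse, injury was rated visually against controls, 0 (no effect) to 100 (complete control).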

corn [2] = experiment: Test C postemergence; format: in vivo, Zea mays; conditions: Zea mays, post-emergence
Procedure, shortened: as §2

large (Lg) crabgrass [3] = experiment: Test A postemergence; format: in vivo, Digitaria sanguinalis; conditions: Digitaria sanguinalis, post-emergence, 240 h, read-out: Plant response rating, Crabgrass, Large
Procedure, shortened: as §1

large (Lg) crabgrass [4] = experiment: Test A preemergence; format: in vivo, Digitaria sanguinalis
Procedure, shortened: as §1

corn [5] = experiment: Test A postemergence; format: in vivo, Zea mays; conditions: Zea mays, post-emergence, 240 h
Procedure, shortened: as §1

wild oat = experiment: Test C postemergence; format: in vivo, Avena fatua; conditions: Avena fatua, post-emergence
Procedure, shortened: as §2

soybean = experiment: Test C postemergence; format: in vivo, Glycine max
Procedure, shortened: as §2

pigweed [6] = experiment: Test A preemergence; format: in vivo, Amaranthus retroflexus
Procedure, shortened: as §1

Italian ryegrass = experiment: Test C postemergence; format: in vivo, Lolium multiflorum
Procedure, shortened: as §2

kochia = experiment: Test C postemergence; format: in vivo, Kochia scoparia; conditions: Bassia scoparia, post-emergence
Procedure, shortened: as §2

pigweed [7] = experiment: Test C postemergence; format: in vivo, Amaranthus retroflexus
Procedure, shortened: as §2

johnsongrass = experiment: Test C postemergence; format: in vivo, Sorghum halepense
Procedure, shortened: as §2

velvetleaf [8] = experiment: Test A postemergence; format: in vivo, Abutilon theophrasti; conditions: Abutilon theophrasti, post-emergence, 240 h, read-out: Plant response rating, Velvetleaf
Procedure, shortened: as §1

waterhemp = experiment: Test C postemergence; format: in vivo, Amaranthus rudis
Procedure, shortened: as §2

morningglory = experiment: Test A postemergence; format: in vivo, Ipomoea spp.; conditions: Ipomoea, post-emergence, 240 h, read-out: Plant response rating, Morningglory
Procedure, shortened: as §1

pigweed [9] = experiment: Test A postemergence; format: in vivo, Amaranthus retroflexus; conditions: Amaranthus retroflexus, post-emergence, read-out: Plant response rating, Pigweed
Procedure, shortened: as §1

giant foxtail = experiment: Test C postemergence; format: in vivo, Setaria faberii; conditions: Setaria faberi, post-emergence
Procedure, shortened: as §2

[10] = 125 g ai/ha, 0 to 100 scale, 0 no effect, 100 complete control
[11] = 500 g ai/ha, 0 to 100 scale where 0 is no effect and 100 is complete control
[12] = 31 g ai/ha, postemergence, visual rating, scale 0 to 100 (0 no effect, 100 complete control), 13 to 15 days

N#Cc1cccc(Oc2ncc(Cl)cn2)c1-n1cc(OCC(F)(F)F)cn1 [Compound 274, 3-[(5-chloro-2-pyrimidinyl)oxy]-2-[4-(2,2,2-trifluoroethoxy)-1H-pyrazol-1-yl]benzonitrile]
60%: pest or weed control at 125 g/ha (giant foxtail; 125 g ai/ha, postemergence, visual rating, scale 0 to 100 (0 no effect, 100 complete control), read-out: Plant response rating, Foxtail, Giant)
85%: pest or weed control at 16 g/ha (kochia; 16 g ai/ha, postemergence, 0 is no effect, 100 is complete control, read-out: Plant response rating (0 to 100), Kochia)
98%: Soybean plant response rating (crop injury, 0-100 scale) at 125 g/ha (soybean; Glycine max, post-emergence, 125 g ai/ha, postemergence, visual rating, scale 0 to 100 (0 no effect, 100 complete control), read-out: Plant response rating, Soybean) | pest or weed control at 125 g/ha (pigweed [7]; Amaranthus retroflexus, post-emergence, 125 g ai/ha, postemergence, visual rating, scale 0 to 100 (0 no effect, 100 complete control), read-out: Plant response rating, Pigweed) | pest or weed control at 125 g/ha (waterhemp; Amaranthus tuberculatus, post-emergence, 125 g ai/ha, postemergence, visual rating, scale 0 to 100 (0 no effect, 100 complete control), read-out: Plant response rating, Waterhemp)
95%: pest or weed control at 16 g/ha (pigweed [7]; Amaranthus retroflexus, post-emergence, 16 g ai/ha, postemergence, 0 is no effect, 100 is complete control, read-out: Plant response rating (0 to 100), Pigweed) | pest or weed control at 62 g/ha (waterhemp; Amaranthus tuberculatus, post-emergence, Postemergence, 62 g ai/ha, scale 0 to 100 (0 no effect, 100 complete control), 13 to 15 days, read-out: Plant response rating, Waterhemp)
10%: pest or weed control at 31 g/ha (barnyardgrass; 31 g ai/ha, postemergence, visual rating, scale 0 to 100 (0 no effect, 100 complete control), 13 to 15 days, read-out: Barnyardgrass plant response rating) | pest or weed control at 62 g/ha (barnyardgrass; Postemergence, 62 g ai/ha, scale 0 to 100 (0 no effect, 100 complete control), 13 to 15 days, read-out: Plant response rating, Barnyardgrass) | plant injury at 31 g/ha (corn [2]; 31 g ai/ha, postemergence, visual rating, scale 0 to 100 (0 no effect, 100 complete control), 13 to 15 days, read-out: Corn plant response rating) | Corn plant response rating (crop injury, 0 = no effect, 100 = complete kill) at 62 g/ha (corn [2]; Postemergence, 62 g ai/ha, scale 0 to 100 (0 no effect, 100 complete control), 13 to 15 days) | pest or weed control at 125 g/ha (johnsongrass; Sorghum halepense, post-emergence, 125 g ai/ha, postemergence, visual rating, scale 0 to 100 (0 no effect, 100 complete control), read-out: Plant response rating, Johnsongrass) | pest or weed control at 31 g/ha (giant foxtail; 31 g ai/ha, postemergence, visual rating, scale 0 to 100 (0 no effect, 100 complete control), 13 to 15 days, read-out: Foxtail, Giant plant response rating) | pest or weed control at 62 g/ha (giant foxtail; Postemergence, 62 g ai/ha, scale 0 to 100 (0 no effect, 100 complete control), 13 to 15 days, read-out: Plant response rating, Foxtail, Giant)
90%: pest or weed control at 125 g/ha (large (Lg) crabgrass [3]; [10]) | pest or weed control at 500 g/ha (large (Lg) crabgrass [3]; [11]) | Corn plant response rating (crop injury, 0 = no effect, 100 = complete kill) at 500 g/ha (corn [5]; [11]) | Soybean plant response rating (crop injury, 0-100 scale) at 62 g/ha (soybean; Glycine max, post-emergence, Postemergence, 62 g ai/ha, scale 0 to 100 (0 no effect, 100 complete control), 13 to 15 days) | pest or weed control at 31 g/ha (kochia; 31 g ai/ha, postemergence, visual rating, scale 0 to 100 (0 no effect, 100 complete control), 13 to 15 days, read-out: Kochia plant response rating) | pest or weed control at 62 g/ha (pigweed [7]; Amaranthus retroflexus, post-emergence, Postemergence, 62 g ai/ha, scale 0 to 100 (0 no effect, 100 complete control), 13 to 15 days, read-out: Plant response rating, Pigweed) | pest or weed control at 125 g/ha (morningglory; [10])
45%: Soybean plant response rating (crop injury, 0-100 scale) at 16 g/ha (soybean; Glycine max, post-emergence, 16 g ai/ha, postemergence, 0 is no effect, 100 is complete control)
100: Velvetleaf plant response rating (0 to 100 scale) (velvetleaf [1]; 125 g ai/ha) | Crabgrass, Large plant response rating (0 to 100 scale) (large (Lg) crabgrass [4]; 125 g ai/ha) | Pigweed plant response rating (0 to 100 scale) (pigweed [6]; 125 g ai/ha)
70%: pest or weed control at 16 g/ha (waterhemp; Amaranthus tuberculatus, post-emergence, 16 g ai/ha, postemergence, 0 is no effect, 100 is complete control, read-out: Plant response rating (0 to 100), Waterhemp)
30%: pest or weed control at 16 g/ha (wild oat; 16 g ai/ha, postemergence, 0 is no effect, 100 is complete control, read-out: Plant response rating (0 to 100), Oat, Wild) | pest or weed control at 125 g/ha (wild oat; 125 g ai/ha, postemergence, visual rating, scale 0 to 100 (0 no effect, 100 complete control), read-out: Plant response rating, Oat, Wild) | pest or weed control at 62 g/ha (Italian ryegrass; Lolium multiflorum, post-emergence, Postemergence, 62 g ai/ha, scale 0 to 100 (0 no effect, 100 complete control), 13 to 15 days, read-out: Plant response rating, Ryegrass, Italian)
5%: pest or weed control at 16 g/ha (barnyardgrass; 16 g ai/ha, postemergence, 0 is no effect, 100 is complete control, read-out: Plant response rating (0 to 100), Barnyardgrass) | plant injury at 16 g/ha (corn [2]; 16 g ai/ha, postemergence, 0 is no effect, 100 is complete control, read-out: Plant response rating (0 to 100), Corn) | pest or weed control at 16 g/ha (Italian ryegrass; Lolium multiflorum, post-emergence, 16 g ai/ha, postemergence, 0 is no effect, 100 is complete control, read-out: Plant response rating (0 to 100), Ryegrass, Italian) | pest or weed control at 16 g/ha (johnsongrass; Sorghum halepense, post-emergence, 16 g ai/ha, postemergence, 0 is no effect, 100 is complete control, read-out: Plant response rating (0 to 100), Johnsongrass) | pest or weed control at 62 g/ha (johnsongrass; Sorghum halepense, post-emergence, Postemergence, 62 g ai/ha, scale 0 to 100 (0 no effect, 100 complete control), 13 to 15 days, read-out: Plant response rating, Johnsongrass) | pest or weed control at 16 g/ha (giant foxtail; 16 g ai/ha, postemergence, 0 is no effect, 100 is complete control, read-out: Plant response rating (0 to 100), Foxtail, Giant)
15%: pest or weed control at 125 g/ha (barnyardgrass; 125 g ai/ha, postemergence, visual rating, scale 0 to 100 (0 no effect, 100 complete control), read-out: Plant response rating, Barnyardgrass) | Corn plant response rating (crop injury, 0 = no effect, 100 = complete kill) at 125 g/ha (corn [2]; 125 g ai/ha, postemergence, visual rating, scale 0 to 100 (0 no effect, 100 complete control))
85: Pigweed plant response rating (pigweed [7]; [12]) | Waterhemp plant response rating (waterhemp; [12])
5: Ryegrass, Italian plant response rating (Italian ryegrass; [12]) | Johnsongrass plant response rating (johnsongrass; [12])
80%: Corn plant response rating (crop injury, 0 = no effect, 100 = complete kill) at 125 g/ha (corn [5]; [10])
35%: pest or weed control at 62 g/ha (wild oat; Postemergence, 62 g ai/ha, scale 0 to 100 (0 no effect, 100 complete control), 13 to 15 days, read-out: Plant response rating, Oat, Wild) | pest or weed control at 125 g/ha (Italian ryegrass; Lolium multiflorum, post-emergence, 125 g ai/ha, postemergence, visual rating, scale 0 to 100 (0 no effect, 100 complete control), read-out: Plant response rating, Ryegrass, Italian)
100%: pest or weed control at 500 g/ha (velvetleaf [1]; Abutilon theophrasti, pre-emergence, 240 h, 500 g ai/ha, 0 to 100 scale where 0 is no effect and 100 is complete control, read-out: Velvetleaf plant response rating) | pest or weed control at 500 g/ha (large (Lg) crabgrass [4]; Digitaria sanguinalis, pre-emergence, 240 h, 500 g ai/ha, 0 to 100 scale where 0 is no effect and 100 is complete control, read-out: Crabgrass, Large plant response rating) | pest or weed control at 500 g/ha (pigweed [6]; Amaranthus retroflexus, pre-emergence, 240 h, 500 g ai/ha, 0 to 100 scale where 0 is no effect and 100 is complete control, read-out: Pigweed plant response rating) | pest or weed control at 125 g/ha (kochia; 125 g ai/ha, postemergence, visual rating, scale 0 to 100 (0 no effect, 100 complete control), read-out: Plant response rating, Kochia) | pest or weed control at 62 g/ha (kochia; Postemergence, 62 g ai/ha, scale 0 to 100 (0 no effect, 100 complete control), 13 to 15 days, read-out: Plant response rating, Kochia) | pest or weed control at 125 g/ha (velvetleaf [8]; [10]) | pest or weed control at 500 g/ha (velvetleaf [8]; [11]) | pest or weed control at 500 g/ha (morningglory; [11]) | pest or weed control at 125 g/ha (pigweed [9]; [10]) | pest or weed control at 500 g/ha (pigweed [9]; [11])
70: Soybean plant response rating (soybean; [12])
